# In US20240150360A1 (THE REGENTS OF THE UNIVERSITY OF MICHIGAN, priority 2021, published 2024):
# Read-outs that look alike come from different tables or passages of the source.
# How the values were obtained:
# [1] = tested on: 22Rv1 cells; assay: Cell growth inhibition assay (CellTiter-Glo) in 22Rv1; assay type: cell-based, human; conditions: 22Rv1 cells, 96 h incubation, read-out: Cell Growth Inhibition (IC50) 22Rv1
# Procedure, shortened: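 22Rv1 prostate cancer cells (passages 3-8, DMEM with 10% FBS) were seeded at 4000 cells/well with compound, 3-fold dilutions from 10 μM final. After 96 h at 37° C and 5% CO2, growth was read by CellTiter-Glo 2.0 luminescence.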
# [2] = target: T1, P300 (Homo sapiens, UniProt Q09472); assay: P300 degradation in 22Rv1 cells (5 h); assay type: cell-based; conditions: 22Rv1 cells, 5 h; for Dmax: read-out: P300 Degradation (22Rv1, 5 h) DCmax
# T1 construct: endogenous in cells; host or cells: 22Rv1 (ATCC CRL-2505) human prostate cancer cells
# T1 sequence (Q09472 whole entry): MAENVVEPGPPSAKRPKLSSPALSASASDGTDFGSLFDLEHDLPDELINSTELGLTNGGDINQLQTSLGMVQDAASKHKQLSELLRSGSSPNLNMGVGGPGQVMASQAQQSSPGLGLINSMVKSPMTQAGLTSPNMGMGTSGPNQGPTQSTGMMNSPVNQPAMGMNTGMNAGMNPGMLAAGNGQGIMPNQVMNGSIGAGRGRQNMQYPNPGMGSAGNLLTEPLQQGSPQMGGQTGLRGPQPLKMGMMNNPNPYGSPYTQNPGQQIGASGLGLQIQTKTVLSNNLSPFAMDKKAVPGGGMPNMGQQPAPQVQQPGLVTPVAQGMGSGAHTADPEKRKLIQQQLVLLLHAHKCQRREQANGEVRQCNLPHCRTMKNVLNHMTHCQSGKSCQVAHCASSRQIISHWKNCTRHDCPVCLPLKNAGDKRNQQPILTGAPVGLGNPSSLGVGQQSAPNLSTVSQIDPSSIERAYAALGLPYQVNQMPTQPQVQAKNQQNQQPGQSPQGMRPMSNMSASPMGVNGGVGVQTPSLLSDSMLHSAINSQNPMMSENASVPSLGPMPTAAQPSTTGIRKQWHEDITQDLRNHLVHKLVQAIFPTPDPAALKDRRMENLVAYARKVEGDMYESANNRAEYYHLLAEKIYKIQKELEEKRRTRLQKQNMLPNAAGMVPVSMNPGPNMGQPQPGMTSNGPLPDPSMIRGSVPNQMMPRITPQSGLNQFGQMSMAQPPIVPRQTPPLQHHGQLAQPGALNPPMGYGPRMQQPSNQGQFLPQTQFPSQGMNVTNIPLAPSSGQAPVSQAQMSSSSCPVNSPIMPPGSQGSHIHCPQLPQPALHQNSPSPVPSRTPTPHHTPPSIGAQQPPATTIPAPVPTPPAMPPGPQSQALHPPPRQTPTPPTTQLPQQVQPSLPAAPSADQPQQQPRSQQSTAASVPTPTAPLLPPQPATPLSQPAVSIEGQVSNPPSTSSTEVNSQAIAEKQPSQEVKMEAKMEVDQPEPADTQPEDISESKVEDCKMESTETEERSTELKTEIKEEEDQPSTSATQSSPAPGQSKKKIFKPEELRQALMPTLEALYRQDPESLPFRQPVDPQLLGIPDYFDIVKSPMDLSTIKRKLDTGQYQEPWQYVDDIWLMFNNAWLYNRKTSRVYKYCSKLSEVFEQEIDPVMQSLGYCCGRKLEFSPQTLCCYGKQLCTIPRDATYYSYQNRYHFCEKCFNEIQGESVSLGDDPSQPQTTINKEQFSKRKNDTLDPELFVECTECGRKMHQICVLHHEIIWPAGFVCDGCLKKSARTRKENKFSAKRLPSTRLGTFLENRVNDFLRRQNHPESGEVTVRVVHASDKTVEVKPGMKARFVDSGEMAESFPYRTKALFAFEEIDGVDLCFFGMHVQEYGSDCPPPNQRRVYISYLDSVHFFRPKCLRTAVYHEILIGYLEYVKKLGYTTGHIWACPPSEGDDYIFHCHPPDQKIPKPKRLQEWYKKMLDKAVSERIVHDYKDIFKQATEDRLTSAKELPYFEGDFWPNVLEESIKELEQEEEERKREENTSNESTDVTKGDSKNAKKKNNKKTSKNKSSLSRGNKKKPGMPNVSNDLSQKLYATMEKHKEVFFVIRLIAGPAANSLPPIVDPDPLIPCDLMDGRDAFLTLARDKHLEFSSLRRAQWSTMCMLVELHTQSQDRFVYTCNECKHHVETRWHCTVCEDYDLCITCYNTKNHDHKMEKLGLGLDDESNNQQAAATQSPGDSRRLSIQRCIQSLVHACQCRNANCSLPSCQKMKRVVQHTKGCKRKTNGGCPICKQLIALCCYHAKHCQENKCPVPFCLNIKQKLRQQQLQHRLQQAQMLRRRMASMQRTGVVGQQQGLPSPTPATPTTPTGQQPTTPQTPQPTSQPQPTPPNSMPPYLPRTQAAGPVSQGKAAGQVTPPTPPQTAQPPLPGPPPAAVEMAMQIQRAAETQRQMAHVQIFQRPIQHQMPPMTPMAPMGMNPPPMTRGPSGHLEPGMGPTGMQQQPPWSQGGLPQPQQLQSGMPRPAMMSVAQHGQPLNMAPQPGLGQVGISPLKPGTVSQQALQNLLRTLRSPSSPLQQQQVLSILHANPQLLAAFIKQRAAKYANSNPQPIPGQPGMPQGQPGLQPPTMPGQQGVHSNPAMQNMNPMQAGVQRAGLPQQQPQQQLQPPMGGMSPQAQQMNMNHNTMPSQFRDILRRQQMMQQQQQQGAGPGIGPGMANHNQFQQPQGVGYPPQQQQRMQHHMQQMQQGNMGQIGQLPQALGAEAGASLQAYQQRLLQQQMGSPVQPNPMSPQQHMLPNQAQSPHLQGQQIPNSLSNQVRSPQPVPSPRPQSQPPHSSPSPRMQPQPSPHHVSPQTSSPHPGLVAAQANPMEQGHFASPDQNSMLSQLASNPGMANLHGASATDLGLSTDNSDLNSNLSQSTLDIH
# From the text: (§1) Biological Assays. […] Cells with 3-8 passages after purchase were used in experiments.
# [3] = tested on: HL60; assay: Cell growth inhibition in HL60; assay type: cell-based; conditions: read-out: Cell Growth Inhibition (IC50) HL60
# [4] = target: T2, CBP (Homo sapiens, UniProt Q92793); assay: CBP degradation in 22Rv1 cells (5 h); assay type: cell-based; conditions: 22Rv1 cells, 5 h; for Dmax: 22Rv1, 5 h, read-out: CBP Degradation (22Rv1, 5 h) DCmax
# T2 construct: endogenous in cells; host or cells: 22Rv1 (ATCC CRL-2505) human prostate cancer cells
# T2 sequence (Q92793 whole entry): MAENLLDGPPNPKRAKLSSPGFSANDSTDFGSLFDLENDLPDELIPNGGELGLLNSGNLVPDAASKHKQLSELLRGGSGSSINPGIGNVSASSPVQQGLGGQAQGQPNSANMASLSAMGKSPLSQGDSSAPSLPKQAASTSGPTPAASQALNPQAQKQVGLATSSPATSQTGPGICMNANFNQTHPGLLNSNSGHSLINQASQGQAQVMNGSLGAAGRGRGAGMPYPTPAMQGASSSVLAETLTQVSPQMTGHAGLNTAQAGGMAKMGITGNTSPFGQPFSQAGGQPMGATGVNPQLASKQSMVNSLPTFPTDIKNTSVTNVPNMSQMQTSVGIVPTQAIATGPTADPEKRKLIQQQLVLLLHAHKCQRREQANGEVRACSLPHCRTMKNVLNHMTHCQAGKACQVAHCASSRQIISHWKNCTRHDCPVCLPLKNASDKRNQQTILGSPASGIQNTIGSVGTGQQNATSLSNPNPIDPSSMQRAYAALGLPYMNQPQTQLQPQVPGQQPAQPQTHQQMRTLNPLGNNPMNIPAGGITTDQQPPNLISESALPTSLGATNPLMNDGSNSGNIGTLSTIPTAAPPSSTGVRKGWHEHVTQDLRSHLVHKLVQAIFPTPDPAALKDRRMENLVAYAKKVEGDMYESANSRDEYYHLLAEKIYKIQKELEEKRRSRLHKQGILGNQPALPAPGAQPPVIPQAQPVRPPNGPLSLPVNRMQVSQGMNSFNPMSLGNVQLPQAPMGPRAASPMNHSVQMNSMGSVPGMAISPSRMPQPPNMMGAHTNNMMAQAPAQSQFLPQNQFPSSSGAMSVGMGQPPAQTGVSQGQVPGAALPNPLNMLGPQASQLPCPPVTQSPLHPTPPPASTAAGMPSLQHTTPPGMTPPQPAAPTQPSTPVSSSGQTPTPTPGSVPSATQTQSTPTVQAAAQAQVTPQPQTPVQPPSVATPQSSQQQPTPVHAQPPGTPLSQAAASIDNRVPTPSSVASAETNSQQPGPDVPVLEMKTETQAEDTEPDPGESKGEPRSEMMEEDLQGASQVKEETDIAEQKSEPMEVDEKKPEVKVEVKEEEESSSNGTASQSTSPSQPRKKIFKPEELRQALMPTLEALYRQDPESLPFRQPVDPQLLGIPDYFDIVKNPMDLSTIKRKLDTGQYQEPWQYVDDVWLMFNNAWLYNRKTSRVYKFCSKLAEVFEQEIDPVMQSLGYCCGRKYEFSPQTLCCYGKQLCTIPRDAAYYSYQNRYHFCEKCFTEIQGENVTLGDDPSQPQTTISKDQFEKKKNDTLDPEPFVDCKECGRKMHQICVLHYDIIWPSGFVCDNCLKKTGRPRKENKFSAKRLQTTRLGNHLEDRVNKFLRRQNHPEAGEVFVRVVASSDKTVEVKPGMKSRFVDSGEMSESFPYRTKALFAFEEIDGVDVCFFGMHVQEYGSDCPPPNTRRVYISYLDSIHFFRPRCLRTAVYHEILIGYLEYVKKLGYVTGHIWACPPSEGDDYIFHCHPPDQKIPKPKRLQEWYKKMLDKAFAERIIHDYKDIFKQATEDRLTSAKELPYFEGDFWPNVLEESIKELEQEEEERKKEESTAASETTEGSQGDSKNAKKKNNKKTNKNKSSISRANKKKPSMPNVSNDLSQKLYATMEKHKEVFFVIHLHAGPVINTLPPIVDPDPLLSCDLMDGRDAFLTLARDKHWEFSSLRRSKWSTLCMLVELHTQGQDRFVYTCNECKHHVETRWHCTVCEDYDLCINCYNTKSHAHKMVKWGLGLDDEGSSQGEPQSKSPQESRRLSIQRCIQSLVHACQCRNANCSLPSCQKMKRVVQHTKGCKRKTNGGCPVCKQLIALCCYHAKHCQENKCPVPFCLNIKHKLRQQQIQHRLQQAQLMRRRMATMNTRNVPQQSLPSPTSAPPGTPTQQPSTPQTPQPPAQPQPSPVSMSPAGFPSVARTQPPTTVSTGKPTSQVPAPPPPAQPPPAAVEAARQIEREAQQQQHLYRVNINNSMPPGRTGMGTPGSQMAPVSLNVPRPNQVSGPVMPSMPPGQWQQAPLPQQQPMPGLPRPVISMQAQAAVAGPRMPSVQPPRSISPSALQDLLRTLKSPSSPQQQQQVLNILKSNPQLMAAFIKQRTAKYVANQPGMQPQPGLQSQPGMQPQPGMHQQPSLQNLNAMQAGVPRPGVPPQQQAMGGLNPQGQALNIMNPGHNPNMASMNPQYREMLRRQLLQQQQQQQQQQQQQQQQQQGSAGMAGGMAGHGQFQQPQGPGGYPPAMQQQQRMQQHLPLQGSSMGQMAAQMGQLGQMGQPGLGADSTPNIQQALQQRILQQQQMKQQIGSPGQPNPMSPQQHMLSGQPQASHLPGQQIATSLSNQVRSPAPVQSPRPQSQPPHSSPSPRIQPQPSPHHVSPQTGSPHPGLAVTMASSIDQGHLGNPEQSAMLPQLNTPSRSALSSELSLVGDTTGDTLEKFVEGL
# From the text: as §1
# [5] = Homo sapiens, HL-60, HL60 cells
structure (smiles),measurement,setting,value
"CC(=O)N1CCc2c(c(-c3cccc4ccccc34)nn2C2CCN(C(=O)CN3CCc4cc5c(cc4C3)C(=O)N(C3CCC(=O)NC3=O)C5=O)CC2)C1 (centres unmarked) [CP-076, 6-(2-(4-(5-acetyl-3-(naphthalen-1-yl)-4,5,6,7-tetrahydro-1H-pyrazolo[4,3-c]pyridin-1-yl)piperidin-1-yl)-2-oxoethyl)-2-(2,6-dioxopiperidin-3-yl)-5,6,7,8-tetrahydro-1H-pyrrolo[3,4-g]isoquinoline-1,3(2H)-dione]",IC50,"[1]; Homo sapiens, 22Rv1, 96 h",> 10000 nM
same,DC50,[2],< 10 nM
same,Dmax,[2],> 70%
same,IC50,[3]; [5],< 1000 nM
same,Dmax,[4],> 90%
same,DC50,[4],< 10 nM
"Cn1cc(-c2cc3c(cc2C(F)F)N(c2nn(C4CCN(C(=O)CN5Cc6cc7c(cc6C5)C(=O)N(C5CCC(=O)NC5=O)C7=O)CC4)c4c2CN(CC(F)F)CC4)CCC3)cn1 (centres unmarked) [CP-058, 6-(2-(4-(5-(2,2-difluoroethyl)-3-(7-(difluoromethyl)-6-(1-methyl-1H-pyrazol-4-yl)-3,4-dihydroquinolin-1(2H)-yl)-4,5,6,7-tetrahydro-1H-pyrazolo[4,3-c]pyridin-1-yl)piperidin-1-yl)-2-oxoethyl)-2-(2,6-dioxopiperidin-3-yl)-6,7-dihydropyrrolo[3,4-f]isoindole-1,3(2H,5H)-dione]",IC50,"[1]; Homo sapiens, 22Rv1, 96 h",> 10000 nM
same,DC50,[2],> 1000 nM
same,Dmax,[2],< 50%
same,IC50,[3]; [5],> 10000 nM
same,Dmax,[4],< 50%
same,DC50,[4],> 1000 nM
"CC(=O)N1CCc2c(c(N3CCCc4cc(C5CC5)c(C(F)F)cc43)nn2C2CCN(C(=O)CN3Cc4cc5c(cc4C3)C(=O)N(C3CCC(=O)NC3=O)C5=O)CC2)C1 (centres unmarked) [CP-013, 6-(2-(4-(5-acetyl-3-(6-cyclopropyl-7-(difluoromethyl)-3,4-dihydroquinolin-1(2H)-yl)-4,5,6,7-tetrahydro-1H-pyrazolo[4,3-c]pyridin-1-yl)piperidin-1-yl)-2-oxoethyl)-2-(2,6-dioxopiperidin-3-yl)-6,7-dihydropyrrolo[3,4-f]isoindole-1,3(2H,5H)-dione]",IC50,"[1]; Homo sapiens, 22Rv1, 96 h",< 1000 nM
same,DC50,[2],< 10 nM
same,Dmax,[2],> 90%
same,IC50,[3]; [5],< 1000 nM
same,Dmax,[4],> 90%
same,DC50,[4],< 10 nM
"CC(=O)N1CCc2c(ccc3c2CCCN3c2nn(C3CCN(C(=O)CN4Cc5cc6c(cc5C4)C(=O)N(C4CCC(=O)NC4=O)C6=O)CC3)c3c2CN(C(C)=O)CC3)C1 (centres unmarked) [CP-081, 6-(2-(4-(5-acetyl-3-(3-acetyl-1,3,4,8,9,10-hexahydro-3,7-phenanthrolin-7(2H)-yl)-4,5,6,7-tetrahydro-1H-pyrazolo[4,3-c]pyridin-1-yl)piperidin-1-yl)-2-oxoethyl)-2-(2,6-dioxopiperidin-3-yl)-6,7-dihydropyrrolo[3,4-f]isoindole-1,3(2H,5H)-dione]",IC50,"[1]; Homo sapiens, 22Rv1, 96 h",> 10000 nM
same,DC50,[2],> 1000 nM
same,Dmax,[2],< 50%
same,IC50,[3]; [5],> 10000 nM
same,Dmax,[4],< 50%
same,DC50,[4],> 1000 nM
"CC(=O)N1CCc2c(c(N3CCCc4cc(-c5cnn(C)c5)c(C(F)F)cc43)nn2[C@H]2CC[C@@H](CN3CCc4cc5c(cc4C3)C(=O)N(C3CCC(=O)NC3=O)C5=O)CC2)C1 (relative stereo) [CP-050, 6-((4-(5-acetyl-3-(7-(difluoromethyl)-6-(1-methyl-1H-pyrazol-4-yl)-3,4-dihydroquinolin-1(2H)-yl)-4,5,6,7-tetrahydro-1H-pyrazolo[4,3-c]pyridin-1-yl)cyclohexyl)methyl)-2-(2,6-dioxopiperidin-3-yl)-5,6,7,8-tetrahydro-1H-pyrrolo[3,4-g]isoquinoline-1,3(2H)-dione]",IC50,"[1]; Homo sapiens, 22Rv1, 96 h",< 100 nM
same,DC50,[2],< 10 nM
same,Dmax,[2],> 90%
same,IC50,[3]; [5],< 100 nM
same,Dmax,[4],> 90%
same,DC50,[4],< 10 nM
"CC(=O)c1cc2c(cc1C(F)F)N(c1nn(C3CCN(C(=O)CN4CCc5cc6c(cc5C4)C(=O)N(C4CCC(=O)NC4=O)C6=O)CC3)c3c1CN(C(C)=O)CC3)CCC2 (centres unmarked) [CP-020, 6-(2-(4-(5-acetyl-3-(6-acetyl-7-(difluoromethyl)-3,4-dihydroquinolin-1(2H)-yl)-4,5,6,7-tetrahydro-1H-pyrazolo[4,3-c]pyridin-1-yl)piperidin-1-yl)-2-oxoethyl)-2-(2,6-dioxopiperidin-3-yl)-5,6,7,8-tetrahydro-1H-pyrrolo[3,4-g]isoquinoline-1,3(2H)-dione]",IC50,"[1]; Homo sapiens, 22Rv1, 96 h",> 10000 nM
same,DC50,[2],> 1000 nM
same,Dmax,[2],< 50%
same,IC50,[3]; [5],< 1000 nM
same,Dmax,[4],< 50%
same,DC50,[4],> 1000 nM
"CC(=O)N1CCc2c(c(N3CCCc4cc(-c5cnn(C)c5)c(C(F)F)cc43)nn2C[C@H]2CC[C@H](N3CCc4cc5c(cc4C3)C(=O)N(C3CCC(=O)NC3=O)C5=O)CC2)C1 (some centres unmarked) [CP-041, 6-(4-((5-acetyl-3-(7-(difluoromethyl)-6-(1-methyl-1H-pyrazol-4-yl)-3,4-dihydroquinolin-1(2H)-yl)-4,5,6,7-tetrahydro-1H-pyrazolo[4,3-c]pyridin-1-yl)methyl)cyclohexyl)-2-(2,6-dioxopiperidin-3-yl)-5,6,7,8-tetrahydro-1H-pyrrolo[3,4-g]isoquinoline-1,3(2H)-dione]",IC50,"[1]; Homo sapiens, 22Rv1, 96 h",< 1000 nM
same,DC50,[2],< 10 nM
same,Dmax,[2],> 90%
same,IC50,[3]; [5],< 100 nM
same,Dmax,[4],> 90%
same,DC50,[4],< 10 nM
"CC(=O)N1CCc2c(c(N3CCCc4cc(-c5ccc(F)cc5)c(C(F)F)cc43)nn2C2CCN(C(=O)CN3Cc4cc5c(cc4C3)C(=O)N(C3CCC(=O)NC3=O)C5=O)CC2)C1 (centres unmarked) [CP-023, 6-(2-(4-(5-acetyl-3-(7-(difluoromethyl)-6-(4-fluorophenyl)-3,4-dihydroquinolin-1(2H)-yl)-4,5,6,7-tetrahydro-1H-pyrazolo[4,3-c]pyridin-1-yl)piperidin-1-yl)-2-oxoethyl)-2-(2,6-dioxopiperidin-3-yl)-6,7-dihydropyrrolo[3,4-f]isoindole-1,3(2H,5H)-dione]",IC50,"[1]; Homo sapiens, 22Rv1, 96 h",< 1000 nM
same,DC50,[2],< 10 nM
same,Dmax,[2],> 70%
same,IC50,[3]; [5],< 100 nM
same,Dmax,[4],> 90%
same,DC50,[4],< 10 nM
"CC(=O)N1CCc2c(c(N3CCCc4cc(-c5cnn(C)c5)c(C(F)F)cc43)nn2C2CCC(C(=O)N3CCc4cc5c(cc4C3)C(=O)N(C3CCC(=O)NC3=O)C5=O)CC2)C1 (centres unmarked) [CP-035, 6-(4-(5-acetyl-3-(7-(difluoromethyl)-6-(1-methyl-1H-pyrazol-4-yl)-3,4-dihydroquinolin-1(2H)-yl)-4,5,6,7-tetrahydro-1H-pyrazolo[4,3-c]pyridin-1-yl)cyclohexane-1-carbonyl)-2-(2,6-dioxopiperidin-3-yl)-5,6,7,8-tetrahydro-1H-pyrrolo[3,4-g]isoquinoline-1,3(2H)-dione]",IC50,[1],< 10000 nM
same,IC50,[3]; HL60 cells,< 1000 nM
same,"CBP Degradation (22Rv1, 5 h) DCmax",[4],+ (>50% =)
same,DC50,[4],< 100 nM
"CC(=O)N1CCc2c(c(N3CCCc4cc(-c5cnn(C)c5)c(C(F)F)cc43)nn2C2CCN(CC(=O)N3Cc4cc5c(cc4C3)C(=O)N(C3CCC(=O)NC3=O)C5=O)CC2)C1 (centres unmarked) [CP-006, 6-(2-(4-(5-acetyl-3-(7-(difluoromethyl)-6-(1-methyl-1H-pyrazol-4-yl)-3,4-dihydroquinolin-1(2H)-yl)-4,5,6,7-tetrahydro-1H-pyrazolo[4,3-c]pyridin-1-yl)piperidin-1-yl)acetyl)-2-(2,6-dioxopiperidin-3-yl)-6,7-dihydropyrrolo[3,4-f]isoindole-1,3(2H,5H)-dione]",IC50,"[1]; Homo sapiens, 22Rv1, 96 h",< 10000 nM
same,IC50,[3]; [5],< 1000 nM
same,Dmax,[4],> 70%
same,DC50,[4],< 10 nM
"CC(=O)N1CCc2c(c(N3CCCc4cc(-c5cnn(C)c5)c(C(F)F)cc43)nn2C2CCC(CC(=O)N3Cc4cc5c(cc4C3)C(=O)N(C3CCC(=O)NC3=O)C5=O)CC2)C1 (centres unmarked) [CP-027, 6-(2-(4-(5-acetyl-3-(7-(difluoromethyl)-6-(1-methyl-1H-pyrazol-4-yl)-3,4-dihydroquinolin-1(2H)-yl)-4,5,6,7-tetrahydro-1H-pyrazolo[4,3-c]pyridin-1-yl)cyclohexyl)acetyl)-2-(2,6-dioxopiperidin-3-yl)-6,7-dihydropyrrolo[3,4-f]isoindole-1,3(2H,5H)-dione]",IC50,"[1]; Homo sapiens, 22Rv1, 96 h",< 10000 nM
same,IC50,[3]; [5],< 1000 nM
same,Dmax,[4],< 50%
same,DC50,[4],> 1000 nM
"CC(=O)N1CCc2c(c(N3CCCc4cc(-c5cnn(C)c5)c(C(F)F)cc43)nn2C[C@H]2CC[C@@H](N3CCc4cc5c(cc4C3)C(=O)N(C3CCC(=O)NC3=O)C5=O)CC2)C1 (relative stereo) [CP-042, 6-(4-((5-acetyl-3-(7-(difluoromethyl)-6-(1-methyl-1H-pyrazol-4-yl)-3,4-dihydroquinolin-1(2H)-yl)-4,5,6,7-tetrahydro-1H-pyrazolo[4,3-c]pyridin-1-yl)methyl)cyclohexyl)-2-(2,6-dioxopiperidin-3-yl)-5,6,7,8-tetrahydro-1H-pyrrolo[3,4-g]isoquinoline-1,3(2H)-dione]",IC50,"[1]; Homo sapiens, 22Rv1, 96 h",< 1000 nM
same,IC50,[3]; [5],< 100 nM
same,Dmax,[4],> 90%
same,DC50,[4],< 10 nM
"CC(=O)N1CCc2c(c(N3CCCc4cc(-c5cnn(C6CCN(C(=O)CN7Cc8cc9c(cc8C7)C(=O)N(C7CCC(=O)NC7=O)C9=O)CC6)c5)c(C(F)F)cc43)nn2C2CCOCC2)C1 (centres unmarked) [CP-072, 6-(2-(4-(4-(1-(5-acetyl-1-(tetrahydro-2H-pyran-4-yl)-4,5,6,7-tetrahydro-1H-pyrazolo[4,3-c]pyridin-3-yl)-7-(difluoromethyl)-1,2,3,4-tetrahydroquinolin-6-yl)-1H-pyrazol-1-yl)piperidin-1-yl)-2-oxoethyl)-2-(2,6-dioxopiperidin-3-yl)-6,7-dihydropyrrolo[3,4-f]isoindole-1,3(2H,5H)-dione]",IC50,"[1]; Homo sapiens, 22Rv1, 96 h",< 100 nM
same,IC50,[3]; [5],< 100 nM
same,Dmax,[4],> 90%
same,DC50,[4],< 10 nM
